Assay: Plasma hesperetin levels after ingestion (FIG. 2)
Format: in vivo
Text: FIG. 2 is a graph comparing the plasma hesperetin levels depending on whether hesperetin-7-glucoside alone is ingested, whether hesperidin alone is ingested or whether a composition according to the present invention is consumed.
Without wishing to be bound by theory, it is thought that this is due to the presence of enzymes which are able to cleave the glucose moiety off, such that hesperetin is readily absorbable.
Without wishing to be bound by theory, it is thought that this is due to the presence of enzymes able to cleave the rutinose moiety of hesperidin only at a later stage of passage through the gastro-intestinal tract.
Thus, the compositions of the present invention advantageously provide a plasma level of hesperetin which is sustained over a longer period of time (cf. FIG. 2).
Indeed, after the ingestion of the compositions of the present invention, the hesperetin plasma levels are maintained for a sustained period of time (FIG. 2).

Compound | plasma level of hesperetin (in vivo) | plasma level of hesperetin (after ingestion, FIG. 2)
COc1ccc(C2CC(=O)c3c(O)cc(OC4OC(CO)C(O)C(O)C4O)cc3O2)cc1O (centres unmarked) [hesperetin-7-glucose, hesperetin-7-glucoside] | sharp peak shortly after ingestion | 
COc1ccc([C@@H]2CC(=O)c3c(O)cc(O[C@@H]4O[C@H](CO[C@@H]5O[C@@H](C)[C@H](O)[C@@H](O)[C@H]5O)[C@@H](O)[C@H](O)[C@H]4O)cc3O2)cc1O [hesperidin] |  | appears only later and to a smaller extent

— patent US8475786B2, “Long-lasting absorption of flavonoids” (Nestec S.A., priority 2006, dated 2013)
